Experimental data as given in patent publication US9464084B2, “P2X7 modulators” (Janssen Pharmaceutica NV, priority 2013, dated 2016).

These compounds were tested against P2X7 (Homo sapiens (Human), UniProt Q99572) (assay: P2X7 antagonism in human PBMCs (LPS + Bz-ATP induced IL-1β release, ELISA)). Settings: compound 10 μM, LPS 30 ng/ml, Bz-ATP 0.5 mM.
Assay type: cell-based
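Further: PBMCs from donor human blood, with a further 1.5 h incubation of the cells in the assay.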

P2X7, sequence (Q99572 whole entry): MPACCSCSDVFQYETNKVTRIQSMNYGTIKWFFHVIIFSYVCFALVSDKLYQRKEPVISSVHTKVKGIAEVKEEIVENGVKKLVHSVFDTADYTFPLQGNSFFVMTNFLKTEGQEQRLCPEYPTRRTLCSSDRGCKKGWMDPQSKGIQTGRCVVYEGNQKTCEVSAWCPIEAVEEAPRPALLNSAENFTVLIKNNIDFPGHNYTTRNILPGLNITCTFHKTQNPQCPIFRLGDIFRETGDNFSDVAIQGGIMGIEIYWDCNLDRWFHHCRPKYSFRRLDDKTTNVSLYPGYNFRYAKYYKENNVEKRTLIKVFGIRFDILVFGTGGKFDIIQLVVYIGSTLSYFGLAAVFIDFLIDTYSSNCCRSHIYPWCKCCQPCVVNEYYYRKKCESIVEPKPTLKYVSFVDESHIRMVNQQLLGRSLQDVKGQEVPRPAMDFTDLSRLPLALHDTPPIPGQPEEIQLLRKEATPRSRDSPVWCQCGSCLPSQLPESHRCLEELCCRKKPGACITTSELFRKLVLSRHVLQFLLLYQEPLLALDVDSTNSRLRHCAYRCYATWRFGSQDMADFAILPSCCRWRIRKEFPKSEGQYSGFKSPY

PBMC 10 μM (% control) | Structure (SMILES)
4.2 | C[C@@H]1Cc2c(nnn2-c2ncccc2F)CN1C(=O)c1cccc(C(F)(F)F)c1Cl (single isomer, unassigned) [Example 167, (6R*)-5-{[2-Chloro-3-(trifluoromethyl)phenyl]carbonyl}-1-(3-fluoropyridin-2-yl)-6-methyl-4,5,6,7-tetrahydro-1H-[1,2,3]triazolo[4,5-c]pyridine]
−4.2 | C[C@H]1Cc2c(nnn2-c2ncccc2F)CN1C(=O)c1cccc(C(F)(F)F)c1Cl (single isomer, unassigned) [Example 168, (6S*)-5-{[2-Chloro-3-(trifluoromethyl)phenyl]carbonyl}-1-(3-fluoropyridin-2-yl)-6-methyl-4,5,6,7-tetrahydro-1H-[1,2,3]triazolo[4,5-c]pyridine]
−0.5 | Cc1ccnc(-n2nnc3c2CCN(C(=O)c2cccc(C(F)(F)F)c2Cl)[C@H]3C)c1 (single isomer, unassigned) [Example 186, (S*)-(2-chloro-3-(trifluoromethyl)phenyl)(4-methyl-1-(4-methylpyridin-2-yl)-6,7-dihydro-1H-[1,2,3]triazolo[4,5-c]pyridin-5(4H)-yl)methanone]
20.4 | C[C@@H]1Cc2c(nnn2-c2ncc(F)cn2)CN1C(=O)c1cccc(C(F)(F)F)c1Cl (single isomer, unassigned) [Example 201, (6R*)-5-{[2-Chloro-3-(trifluoromethyl)phenyl]carbonyl}-1-(5-fluoropyrimidin-2-yl)-6-methyl-4,5,6,7-tetrahydro-1H-[1,2,3]triazolo[4,5-c]pyridine]
24.1 | C[C@H]1Cc2c(nnn2-c2ncc(F)cn2)CN1C(=O)c1cccc(C(F)(F)F)c1Cl (single isomer, unassigned) [Example 202, (6S*)-5-{[2-Chloro-3-(trifluoromethyl)phenyl]carbonyl}-1-(5-fluoropyrimidin-2-yl)-6-methyl-4,5,6,7-tetrahydro-1H-[1,2,3]triazolo[4,5-c]pyridine]
45.0 | Cc1c(C(=O)N2Cc3nnn(-c4ncc(F)cn4)c3C[C@H]2C)cccc1C(F)(F)F (single isomer, unassigned) [Example 207, (6R*)-1-(5-Fluoropyrimidin-2-yl)-6-methyl-5-{[2-methyl-3-(trifluoromethyl)phenyl]carbonyl}-4,5,6,7-tetrahydro-1H-[1,2,3]triazolo[4,5-c]pyridine]
20.9 | Cc1c(C(=O)N2Cc3nnn(-c4ncc(F)cn4)c3C[C@@H]2C)cccc1C(F)(F)F (single isomer, unassigned) [Example 208, (6S*)-1-(5-Fluoropyrimidin-2-yl)-6-methyl-5-{[2-methyl-3-(trifluoromethyl)phenyl]carbonyl}-4,5,6,7-tetrahydro-1H-[1,2,3]triazolo[4,5-c]pyridine]
28.5 | C[C@@H]1Cc2c(nnn2-c2cnccn2)CN1C(=O)c1cccc(C(F)(F)F)c1Cl (single isomer, unassigned) [Example 211, (6R*)-5-{[2-Chloro-3-(trifluoromethyl)phenyl]carbonyl}-6-methyl-1-pyrazin-2-yl-4,5,6,7-tetrahydro-1H-[1,2,3]triazolo[4,5-c]pyridine]
17.4 | C[C@H]1Cc2c(nnn2-c2cnccn2)CN1C(=O)c1cccc(C(F)(F)F)c1Cl (single isomer, unassigned) [Example 212, (6S*)-5-{[2-Chloro-3-(trifluoromethyl)phenyl]carbonyl}-6-methyl-1-pyrazin-2-yl-4,5,6,7-tetrahydro-1H-[1,2,3]triazolo[4,5-c]pyridine]

Second part, the compound before the results:

Structure (SMILES) | PBMC 10 μM (% control)
C[C@@H]1c2nnn(-c3ccn(C)n3)c2CCN1C(=O)c1cccc(C(F)(F)F)c1Cl (single isomer, unassigned) [Example 169, (R*)-(2-Chloro-3-(trifluoromethyl)phenyl)(4-methyl-1-(1-methyl-1H-pyrazol-3-yl)-6,7-dihydro-1H-[1,2,3]triazolo[4,5-c]pyridin-5(4H)-yl)methanone] | 95.0
C[C@H]1c2nnn(-c3ncc(F)cn3)c2CCN1C(=O)c1cccc(C(F)(F)F)c1F (single isomer, unassigned) [Example 178, (S*)-(2-fluoro-3-(trifluoromethyl)phenyl)(1-(5-fluoropyrimidin-2-yl)-4-methyl-6,7-dihydro-1H-[1,2,3]triazolo[4,5-c]pyridin-5(4H)-yl)methanone] | −4.7
Cc1cc(C)nc(-n2nnc3c2CCN(C(=O)c2cccc(C(F)(F)F)c2Cl)[C@H]3C)n1 (single isomer, unassigned) [Example 182, (S*)-(2-chloro-3-(trifluoromethyl)phenyl)(1-(4,6-dimethylpyrimidin-2-yl)-4-methyl-6,7-dihydro-1H-[1,2,3]triazolo[4,5-c]pyridin-5(4H)-yl)methanone] | 62.5
C[C@H]1Cc2c(nnn2-c2ncc(F)cn2)CN1C(=O)c1ccnc(C(F)(F)F)c1Cl (single isomer, unassigned) [Example 183, (R*)-(3-chloro-2-(trifluoromethyl)pyridin-4-yl)(1-(5-fluoropyrimidin-2-yl)-6-methyl-6,7-dihydro-1H-[1,2,3]triazolo[4,5-c]pyridin-5(4H)-yl)methanone] | −1.2
Cc1ccnc(-n2nnc3c2CCN(C(=O)c2cccc(C(F)(F)F)c2Cl)[C@@H]3C)c1 (single isomer, unassigned) [Example 185, (R*)-(2-chloro-3-(trifluoromethyl)phenyl)(4-methyl-1-(4-methylpyridin-2-yl)-6,7-dihydro-1H-[1,2,3]triazolo[4,5-c]pyridin-5(4H)-yl)methanone] | −3.7
Cc1c(C(=O)N2Cc3nnn(-c4ncc(F)cn4)c3C[C@H]2C)ccnc1C(F)(F)F (single isomer, unassigned) [Example 187, (S*)-(1-(5-fluoropyrimidin-2-yl)-6-methyl-6,7-dihydro-1H-[1,2,3]triazolo[4,5-c]pyridin-5(4H)-yl)(3-methyl-2-(trifluoromethyl)pyridin-4-yl)methanone] | −0.6
Cc1c(C(=O)N2CCc3c(nnn3-c3ncccn3)[C@H]2C)cccc1C(F)(F)F (single isomer, unassigned) [Example 188, (R*)-(4-methyl-1-(pyrimidin-2-yl)-6,7-dihydro-1H-[1,2,3]triazolo[4,5-c]pyridin-5(4H)-yl)(2-methyl-3-(trifluoromethyl)phenyl)methanone] | −0.7
C[C@@H]1c2nnn(-c3ncc(F)cn3)c2CCN1C(=O)c1cccc(C(F)(F)F)c1F (single isomer, unassigned) [Example 190, (R*)-(2-fluoro-3-(trifluoromethyl)phenyl)(1-(5-fluoropyrimidin-2-yl)-4-methyl-6,7-dihydro-1H-[1,2,3]triazolo[4,5-c]pyridin-5(4H)-yl)methanone] | 7.1
C[C@@H]1c2ncn(-c3ncc(F)cn3)c2CCN1C(=O)c1cccc(C(F)(F)F)c1Cl (single isomer, unassigned) [Example 193, (R*)-(2-Chloro-3-(trifluoromethyl)phenyl)(1-(5-fluoropyrimidin-2-yl)-4-methyl-6,7-dihydro-1H-imidazo[4,5-c]pyridin-5(4H)-yl)methanone] | 1.4
C[C@H]1c2ncn(-c3ncc(F)cn3)c2CCN1C(=O)c1cccc(C(F)(F)F)c1Cl (single isomer, unassigned) [Example 194, (S*)-(2-Chloro-3-(trifluoromethyl)phenyl)(1-(5-fluoropyrimidin-2-yl)-4-methyl-6,7-dihydro-1H-imidazo[4,5-c]pyridin-5(4H)-yl)methanone] | −12.8
Cc1c(C(=O)N2CCc3c(nnn3-c3ncccn3)[C@@H]2C)cccc1C(F)(F)F (single isomer, unassigned) [Example 197, (S*)-(4-methyl-1-(pyrimidin-2-yl)-6,7-dihydro-1H-[1,2,3]triazolo[4,5-c]pyridin-5(4H)-yl)(2-methyl-3-(trifluoromethyl)phenyl)methanone] | 2.1
C[C@@H]1Cc2c(nnn2-c2ncc(F)cn2)CN1C(=O)c1cccc(Cl)c1Cl (single isomer, unassigned) [Example 204, (6R*)-5-[(2,3-Dichlorophenyl)carbonyl]-1-(5-fluoropyrimidin-2-yl)-6-methyl-4,5,6,7-tetrahydro-1H-[1,2,3]triazolo[4,5-c]pyridine] | 180.6
C[C@H]1Cc2c(nnn2-c2ncc(F)cn2)CN1C(=O)c1cccc(Cl)c1Cl (single isomer, unassigned) [Example 205, (6S*)-5-[(2,3-Dichlorophenyl)carbonyl]-1-(5-fluoropyrimidin-2-yl)-6-methyl-4,5,6,7-tetrahydro-1H-[1,2,3]triazolo[4,5-c]pyridine] | 17.1
C[C@@H]1Cc2c(nnn2-c2ncc(F)cn2)CN1C(=O)c1ccc(F)c(Cl)c1Cl (single isomer, unassigned) [Example 214, (6R*)-5-[(2,3-Dichloro-4-fluorophenyl)carbonyl]-1-(5-fluoropyrimidin-2-yl)-6-methyl-4,5,6,7-tetrahydro-1H-[1,2,3]triazolo[4,5-c]pyridine] | 8.2
C[C@H]1Cc2c(nnn2-c2ncc(F)cn2)CN1C(=O)c1ccc(F)c(Cl)c1Cl (single isomer, unassigned) [Example 215, (6S*)-5-[(2,3-Dichloro-4-fluorophenyl)carbonyl]-1-(5-fluoropyrimidin-2-yl)-6-methyl-4,5,6,7-tetrahydro-1H-[1,2,3]triazolo[4,5-c]pyridine] | 2.7
C[C@@H]1Cc2c(nnn2-c2ncc(F)cn2)CN1C(=O)c1ccc(Cl)c(F)c1Cl (single isomer, unassigned) [Example 217, (6R*)-5-[(2,4-Dichloro-3-fluorophenyl)carbonyl]-1-(5-fluoropyrimidin-2-yl)-6-methyl-4,5,6,7-tetrahydro-1H-[1,2,3]triazolo[4,5-c]pyridine] | 60.8
